Measured values published in publication PMC2673432 (Nucleic Acids Research, 2009).

Target: human L3MBTL2 4-MBT-repeat domain (4MBT, residues 170–625) (Homo sapiens, UniProt Q969R5)
Experiment: Isothermal titration calorimetry
Type: binding
Conditions: ITC, 25°C, pH 7.5, 200 mM NaCl; values in Supplementary Figure 3

Sequence of human L3MBTL2 4-MBT-repeat domain (4MBT, residues 170–625) (Q969R5 170-625): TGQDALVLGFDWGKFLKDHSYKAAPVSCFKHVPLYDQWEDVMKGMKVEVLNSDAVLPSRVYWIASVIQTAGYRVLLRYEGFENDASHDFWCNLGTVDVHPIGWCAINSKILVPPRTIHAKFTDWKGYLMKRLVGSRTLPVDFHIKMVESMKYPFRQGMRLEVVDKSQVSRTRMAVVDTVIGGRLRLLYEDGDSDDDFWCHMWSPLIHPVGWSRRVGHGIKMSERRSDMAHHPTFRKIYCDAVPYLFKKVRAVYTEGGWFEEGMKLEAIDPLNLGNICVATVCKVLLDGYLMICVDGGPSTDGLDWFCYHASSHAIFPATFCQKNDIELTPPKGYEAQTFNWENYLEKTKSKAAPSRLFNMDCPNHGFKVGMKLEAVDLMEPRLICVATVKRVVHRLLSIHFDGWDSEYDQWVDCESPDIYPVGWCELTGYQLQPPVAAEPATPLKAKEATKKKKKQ

CNCCCC[C@H](N)C(=O)O [free mono-methylated lysine, mono-methylated lysine]
Relative binding affinity (in words): binds mono- and di-methylated lysine centrally located in a peptide more tightly than free mono-methylated lysine
